Results from ChEMBL document CHEMBL2157909, “Design, synthesis, spectral and biological evaluation of novel 1-allyl substituted 2,6-diphenylpiperidin-4-ones and its derivatives of oximes/oxime ethers” (2012).
Converted amounts (≈) assume the structure as drawn.

Legend:
[1] = system: Penicillium chrysogenum; experiment: Antifungal activity against Penicillium chrysogenum ATCC 28089 after 72 to 96 hrs by two fold serial dilution method; format: functional
[2] = system: Aspergillus niger; experiment: Antifungal activity against Aspergillus niger ATCC 635 after 72 to 96 hrs by two fold serial dilution method; format: functional
[3] = system: Rhizopus; experiment: Antifungal activity against Rhizopus sp. ATCC 2842 after 72 to 96 hrs by two fold serial dilution method; format: functional
[4] = system: Fusarium oxysporum; experiment: Antifungal activity against Fusarium oxysporum ATCC 48112 after 72 to 96 hrs by two fold serial dilution method; format: functional
[5] = system: Salmonella typhi; experiment: Antibacterial activity against Salmonella typhi ATCC 25021 after 24 hrs by two fold serial dilution method; format: functional, Salmonella enterica subsp. enterica serovar Typhi; details: Salmonella enterica, ATCC 25021, 24 h
[6] = system: Aspergillus flavus; experiment: Antifungal activity against Aspergillus flavus ATCC 525 after 72 to 96 hrs by two fold serial dilution method; format: functional
[7] = system: Pseudomonas; experiment: Antibacterial activity against Pseudomonas ATCC 27853 after 24 hrs by two fold serial dilution method; format: functional; details: ATCC 27853, 24 h
[8] = system: Escherichia coli; experiment: Antibacterial activity against Escherichia coli ATCC 26032 after 24 hrs by two fold serial dilution method; format: functional; details: ATCC 26032, 24 h
[9] = system: Staphylococcus aureus; experiment: Antibacterial activity against Staphylococcus aureus ATCC 25930 after 24 hrs by two fold serial dilution method; format: functional; details: ATCC 25930, 24 h
[10] = system: Bacillus subtilis; experiment: Antibacterial activity against Bacillus subtilis ATCC 530 after 24 hrs by two fold serial dilution method; format: functional; details: ATCC 530, 24 h
[11] = Ratio of MIC for Pseudomonas ATCC 27853 to MIC for Salmonella typhi ATCC 25021; format: functional
[12] = Ratio of MIC for Bacillus subtilis ATCC 530 to MIC for Salmonella typhi ATCC 25021; format: functional

SMILES	MIC [1] [µg/mL]	MIC [2] [µg/mL]	MIC [3] [µg/mL]	MIC [4] [µg/mL]	MIC [5] [µg/mL]	MIC [6] [µg/mL]	MIC [7] [µg/mL]	MIC [8] [µg/mL]	MIC [9] [µg/mL]	MIC [10] [µg/mL]	Ratio [11]	Ratio [12]
C=CCN1[C@H](c2ccccc2)C/C(=N\OCc2ccccc2)[C@@H](CC)[C@@H]1c1ccccc1 (relative stereo)	12.5 (≈ 29.4 µM)	50 (≈ 118 µM)	12.5 (≈ 29.4 µM)	25 (≈ 58.9 µM)	25 (≈ 58.9 µM)	100 (≈ 236 µM)	100 (≈ 236 µM)	6.25 (≈ 14.7 µM)	200 (≈ 471 µM)	50 (≈ 118 µM)		
C=CCN1[C@@H](c2ccccc2)C(C)(C)/C(=N/OCc2ccccc2)C[C@H]1c1ccccc1 (relative stereo)	6.25 (≈ 14.7 µM)	25 (≈ 58.9 µM)	50 (≈ 118 µM)	12.5 (≈ 29.4 µM)	12.5 (≈ 29.4 µM)	12.5 (≈ 29.4 µM)	25 (≈ 58.9 µM)	50 (≈ 118 µM)	50 (≈ 118 µM)	6.25 (≈ 14.7 µM)		
C=CCN1[C@H](c2ccccc2)CC(=O)[C@@H](C)[C@@H]1c1ccccc1 (relative stereo)	50 (≈ 164 µM)	50 (≈ 164 µM)	200 (≈ 655 µM)	100 (≈ 327 µM)	50 (≈ 164 µM)	50 (≈ 164 µM)	200 (≈ 655 µM)	100 (≈ 327 µM)	100 (≈ 327 µM)	200 (≈ 655 µM)		
C=CCN1[C@H](c2ccc(Cl)cc2)CC(=O)[C@@H](C)[C@@H]1c1ccc(Cl)cc1 (relative stereo)	6.25 (≈ 16.7 µM)	50 (≈ 134 µM)	25 (≈ 66.8 µM)	12.5 (≈ 33.4 µM)	12.5 (≈ 33.4 µM)	25 (≈ 66.8 µM)	50 (≈ 134 µM)	12.5 (≈ 33.4 µM)	25 (≈ 66.8 µM)	50 (≈ 134 µM)		
C=CCN1[C@H](c2ccc(OC)cc2)CC(=O)[C@@H](C)[C@@H]1c1ccc(OC)cc1 (relative stereo)	50 (≈ 137 µM)	12.5 (≈ 34.2 µM)	25 (≈ 68.4 µM)	25 (≈ 68.4 µM)	25 (≈ 68.4 µM)	50 (≈ 137 µM)	100 (≈ 274 µM)	50 (≈ 137 µM)	100 (≈ 274 µM)	6.25 (≈ 17.1 µM)		
C=CCN1[C@H](c2ccccc2)CC(=O)[C@@H](CC)[C@@H]1c1ccccc1 (relative stereo)	25 (≈ 78.3 µM)	25 (≈ 78.3 µM)	12.5 (≈ 39.1 µM)	50 (≈ 157 µM)	100 (≈ 313 µM)	100 (≈ 313 µM)	100 (≈ 313 µM)	50 (≈ 157 µM)	100 (≈ 313 µM)	12.5 (≈ 39.1 µM)		
C=CCN1[C@@H](c2ccccc2)C(C)(C)C(=O)C[C@H]1c1ccccc1 (relative stereo)	25 (≈ 78.3 µM)	50 (≈ 157 µM)	100 (≈ 313 µM)	50 (≈ 157 µM)	12.5 (≈ 39.1 µM)	25 (≈ 78.3 µM)	25 (≈ 78.3 µM)	25 (≈ 78.3 µM)	25 (≈ 78.3 µM)	100 (≈ 313 µM)		
C=CCN1[C@H](c2ccccc2)C/C(=N\O)[C@@H](C)[C@@H]1c1ccccc1 (relative stereo)	100 (≈ 312 µM)	50 (≈ 156 µM)	25 (≈ 78 µM)	100 (≈ 312 µM)	100 (≈ 312 µM)	200 (≈ 624 µM)	200 (≈ 624 µM)	50 (≈ 156 µM)	100 (≈ 312 µM)	50 (≈ 156 µM)		
C=CCN1[C@H](c2ccc(C)cc2)C/C(=N\O)[C@@H](C)[C@@H]1c1ccc(C)cc1 (relative stereo)	200 (≈ 574 µM)	12.5 (≈ 35.9 µM)	100 (≈ 287 µM)	25 (≈ 71.7 µM)	12.5 (≈ 35.9 µM)	50 (≈ 143 µM)	25 (≈ 71.7 µM)	50 (≈ 143 µM)	200 (≈ 574 µM)	50 (≈ 143 µM)	2	3
C=CCN1[C@H](c2ccc(Cl)cc2)C/C(=N\O)[C@@H](C)[C@@H]1c1ccc(Cl)cc1 (relative stereo)	50 (≈ 128 µM)	6.25 (≈ 16.1 µM)	25 (≈ 64.2 µM)	12.5 (≈ 32.1 µM)	12.5 (≈ 32.1 µM)	50 (≈ 128 µM)	50 (≈ 128 µM)	100 (≈ 257 µM)	6.25 (≈ 16.1 µM)	50 (≈ 128 µM)		
C=CCN1[C@H](c2ccc(OC)cc2)C/C(=N\O)[C@@H](C)[C@@H]1c1ccc(OC)cc1 (relative stereo)	100 (≈ 263 µM)	50 (≈ 131 µM)	25 (≈ 65.7 µM)	25 (≈ 65.7 µM)	100 (≈ 263 µM)	12.5 (≈ 32.9 µM)	12.5 (≈ 32.9 µM)	50 (≈ 131 µM)	25 (≈ 65.7 µM)	100 (≈ 263 µM)		
C[C@@H]1[C@H](O)[C@@H](C)/C=C/C=C/C=C/C=C/C=C/C=C/C=C/[C@H](O[C@@H]2O[C@H](C)[C@@H](O)[C@H](N)[C@@H]2O)C[C@@H]2O[C@](O)(C[C@@H](O)C[C@@H](O)[C@H](O)CC[C@@H](O)C[C@@H](O)CC(=O)O[C@H]1C)C[C@H](O)[C@H]2C(=O)O [AMPHOTERICIN B]	12.5 (≈ 13.5 µM)	50 (≈ 54.1 µM)	25 (≈ 27.1 µM)	50 (≈ 54.1 µM)		50 (≈ 54.1 µM)						
CN[C@@H]1[C@H](O[C@H]2[C@H](O[C@H]3[C@H](O)[C@@H](O)[C@H](N=C(N)N)[C@@H](O)[C@@H]3N=C(N)N)O[C@@H](C)[C@]2(O)C=O)O[C@@H](CO)[C@H](O)[C@H]1O [STREPTOMYCIN]					50 (≈ 86 µM)		25 (≈ 43 µM)	12.5 (≈ 21.5 µM)	50 (≈ 86 µM)	12.5 (≈ 21.5 µM)		
